Measurements as given in patent publication US9243024B2, “Aptamer-mediated drug release” (priority 2009, dated 2016).
Each block holds one compound with its values, some of them ahead of it.

Tests used:
[1] = system: matrix-displayed aptamer (SEQ ID NO:11) on Biacore SA chip; test: Biacore SPR: loading and release from aptamer-coated SA chip; assay type: binding
Experimental: For SPR experiments, Biacore X system and commercially available Biacore SA sensor chips from Biacore AB (Uppsala, Sweden) were used.
A 1 μM solution of aptamer aptamer 5′-/5BioTEG//iSp18//iSp18/ATCTCGGTCTCGGGACGACAGGATTTTCCTCAATGAAGTGGGTCGTCCCGAGA (SEQ ID NO:11) in 10 mM HEPES at pH 7.4, 150 mM NaCl, and 3 mM EDTA (in HBS-EP) was applied to one of the SA sensor chip's two channels for 20 min at 4 μL min^−1, followed by a 120 sec wash with 4 M urea/15 mM EDTA to remove any nonspecifically adsorbed material. The aptamer used for these SPR experiments was shorter by two bases relative to the aptamer used in the microsphere experiments (see SEQ ID NO:7). According to the Biacore SA chip literature, the matrix was a highly irregular 3D dextran hydrogel recognition matrix with a height of approximately 100-200 nm and an uneven distribution of streptavidin. The matrix was coated with biotinylated aptamer containing two 18-atom hexaethylene glycol spacers between the biotin and the oligonucleotide. On the basis of changes in SPR response, the aptamer was coated at saturation densities of 0.12-to-0.15 pmol mm^−2, an estimated average inter-aptamer distance of 10-to-11 nm (based on a 100 nm height for the dextran layer. 1.2-to-1.6 molecules of insulin-conjugate bound per aptamer on initial loading, with oligonucleotide binding (i.e. no insulin attached) at 1.2 per aptamer. Where possible, the channel with no aptamer or insulin-conjugate/oligonucleotide deposited acted as a blank for correction of system influence. When the additional channel was not able to be used as a blank, data for the first 10 minutes of any buffer change was omitted due to artifacts occurring in this time period caused by washes with the new buffer.
Matrix-Aptamer Hybridization with (5). (5) 1 μM in NaCl (140 mM), KCl (5 mM), and MgCl2 (1.2 mM), buffered to pH 7.4 with Tris (20 mM), was dispensed on the aptamer displaying channel at 1 μL min^−1 until saturation (80 min), with the other channel used as a system influence control when possible. Monitoring of conjugate (5) release was taken 15 minutes after the end of the conjugate (5) application time to allow for weak non-specifically bound conjugate to be washed from the surface. Conjugate dissociation in real time was measured through the decrease in mass, again using the formula 1000 R.U.=[…]. In some experiments, instrumental instabilities were observed as occasional spikes in sensorgrams during long-time monitoring.
Release of the insulin-conjugate (i→ii in FIG. 1A) was studied in two different systems: 1) release from a dextran matrix (SA-Chip, Biacore), under continuous flow, with surface plasmon resonance (SPR) monitoring, and 2) release from the surface of non-porous beads followed by fluorescence monitoring. […]

[2] = system: aptamer (SEQ ID NO:7) functionalized microspheres loaded with conjugate (5); test: Triggered release of insulin conjugate (5) from aptamer coated microspheres, fluorescence monitoring
Experimental: (for a biotin binding site:aptamer ratio of 5:1) Streptavidin functionalized magnetic microspheres (Bangs Laboratories), 2 mL, were washed with HEPES 10 mM/NaCl 150 mM/pH 7.4 buffer 3×2 mL, using a magnet to separate out the microspheres from the washings. The microspheres were suspended in 1 mL of the same buffer. The aptamer 5′-/5BioTEG//iSp18//iSp18/ATCTCGGTCTCGGGACGACAGGATTTTCCTCAATGAAGTGGGTCGTCCCGAGACC-3′ (SEQ ID NO:7) (IDT, Coralville, Iowa, USA), 2 nmoles, was dissolved in 10 mL of the buffer and added slowly drop-wise to the microsphere suspension under continuous shaking. The mixture was incubated for one hour and then washed 3×, once with a 1 mL volume then twice with 200 μL volumes after transfer to a 1.5 mL microcentrifuge tube. The washed microspheres were resuspended in 1 mL of buffer and stored at 4° C. until use. For a biotin binding site:aptamer ratio of 1:1, i.e. saturated, 800 μL of microspheres were prepared as above, with the exception that they were resuspended in 400 uL of buffer with 8 nmoles of aptamer then added.
Aptamer functionalized microspheres (200 uL containing 0.4 nmoles of aptamer were washed 1×200 μL of binding buffer and then resuspended in 100 μl of the same buffer. The insulin-PEO12-oligonucleotide conjugate in 0.5 nmoles, in 37 μL of water, was added to the suspension and incubated, with constant mixing by inversion, overnight at room temperature, protected from light.
All release experiments were carried out in water containing NaCl (140 mM), KCl (5 mM), and MgCl2 (1.2 mM), buffered to pH 7.4 with Tris (20 mM). Streptavidin coated microspheres were mixed with biotinylated aptamer to obtain aptamer coated microspheres, see above for detailed preparation. […] On addition of six micromolar quinine at three and one half hours an additional pulse with analogous characteristics of the first pulse was observed. A third analogous pulse can be triggered using eighteen micromolar quinine. […]

cocaine aptamer MNS-1 = test: Fluorescence screening of FDA approved drugs against fluorescein-labeled aptamer MNS-1 with DABCYL quencher oligonucleotide 1-Q; assay type: binding; settings: 20 mM Tris-HCl pH 7.4, 50 nM MNS-1, 150 nM 1-Q, 30 min incubation
Experimental: Oligonucleotides MNS-1 and 1-Q were custom-made and HPLC purified by Integrated DNA Technologies, Inc (Coralville, Iowa, USA) and were used as received. The base sequence for MNS-1 is: 5′-fluorescein-ATCTCGGGACGACAGGATTTTCCTCAATGAAGTGGGTCGTCCC (SEQ ID NO:4), and 1-Q is: 5′-GTC GTC CCG AGA T-dabcyl (SEQ ID NO:5). All compounds (except cocaine) were purchased from Sigma-Aldrich Co. (St. Louis, Mo., USA). All measurements were performed in 20 mM Tris-HCl pH 7.4, 140 mM NaCl, 5 mM KCl, 2 mM MgCl2. Mixture of MNS-1 and 1-Q was incubated for 5 min at room temperature, then a series of standard dilutions of all compounds were added to the mixture solutions of MNS-1 and 1-Q to final concentrations of 50 nM and 150 nM respectively. Measurements were performed after an incubation time of 30 min. The measurements were performed on a Perkin-Elmer Victor II microplate reader (Wallac, Finland) with a 485-nm excitation filter and a 535-nm emission filter. […]

Spiegelmer (L-MNS) = Spiegelmer (L-MNS) binding of quinine; settings: same conditions as MNS-1/1-Q
Excerpt: ) binding of quinine. […] from ChemGenes (Wilmington, Mass.). Note that the sequence and label are same as mns-1, 1-Q, measurement conditions and concentrations were also the same (see FIG. 4, and Materials and Methods section in Example section 6). […] Oligonucleotides MNS-1 and 1-Q were custom-made and HPLC purified by Integrated DNA Technologies, Inc (Coralville, Iowa, USA) and were used as received. The base sequence for MNS-1 is: 5'-fluorescein-[NT] ID NO:4), and 1-Q is: 5'-[NT]-dabcyl (SEQ ID NO:5). […] (St. Louis, Mo., USA). All measurements were performed in 20 mM Tris-HCl pH 7.4, 140 mM NaCl, 5 mM KCl, 2 mM MgCl2. […] Measurements were performed after an incubation time of 30 min. The measurements were performed on a Perkin-Elmer Victor II microplate reader (Wallac, Finland) with a 485-nm excitation filter and a 535-nm emission filter.

[3] = system: rat hepatoma cell insulin signaling pathways (McA-RH7777); test: Tissue culture and insulin signaling assay; assay type: cell-based; settings: 100 nM for 10 min, McA-RH7777 cells, in triplicate
Experimental: McA-RH7777, rat hepatoma cells were grown in DMEM media with 20% fetal bovine serum. Cells were incubated in serum-free medium for 5 hours and treated with insulin and insulin-oligonucleotide conjugate at the concentration of 100 nM for 10 min. Cell lysates were prepared in SDS lysis buffer (2% SDS, 62.5 mM Tris HCL (pH 6.8), 10% glycerol, 50 mM DTT, 0.01% Bromophenol Blue). All antibodies were purchased from Cell Signaling Technology (Danvers, Mass.).

Compound: 5′-TCTCGGGACGACCCACTTCATTG-3′ (TCTCGGGACGACCCACTTCATTG; listed as DNA, chemistry not given here) [oligonucleotide inhibitor]
blocking of insulin-conjugate release in the presence of quinine ([1]; 1 μM inhibitor, SPR): block the release of the insulin-conjugate

Compound: C[C@]12CCC(=O)C=C1CC[C@@H]1[C@@H]2[C@@H](O)C[C@@]2(C)[C@H]1CC[C@]2(O)C(=O)COC(=O)CCC(=O)O [hydrocortisone-21-hemisuccinate (HHS), hydrocortisone-21-hemisuccinate]
triggering of insulin conjugate release from microspheres ([2]; 250 μM, soaking for a total of 60 minutes): sluggishly | triggering of insulin conjugate release from microspheres ([2]; higher concentrations than 250 μM): significant release of the conjugate

Kd (cocaine aptamer MNS-1): ~600 nM | binding to the spiegelmer of the aptamer (Spiegelmer (L-MNS)): bound to the spiegelmer of the aptamer
Compound: C=C[C@H]1C[N@@]2CC[C@H]1C[C@H]2[C@H](O)c1ccnc2ccc(OC)cc12 [quinine]
insulin-conjugate boluses by escalating quinine concentrations ([1]; 0, 2 and 8 μM quinine, or 1.5, 6 and 18 μM after pre-washing the chip, SPR): desired profile with three postprandial boluses | triggered release of (5) from microspheres ([2]; two micromolar quinine, pH 7.4): a pulse of (5) was released

Compound: Fluorescein-5′-GTC GTC CCG AGA CCG AGA T-3′-L1-Insulin [insulin conjugate]
activity of insulin conjugate on insulin signaling [3]: full activity | line of best fit slope of initial rate data for dissociation ([1]; SA chip (Biacore), fitted from 15 to 25 minutes): −0.1399 fmol mm^−2 min^−1 | observed initial dissociation rate ([1]; SA chip (Biacore), no quinine): 0.14 fmol mm^−2 min^−1
